{
  "source": "patent US9133225B2",
  "about": "“Dual targeting anticancer agents” (priority 2013, dated 2015)",
  "key": {"A549 cells [1]": {"system": "A549 cells", "experiment": "MTT cytotoxicity assay, A549", "conditions": "read-out: cytotoxicity IC50; A549, lung; MTT, 48 h treatment; spread in brackets", "excerpt": "(a) Dulbecco's Modified Eagle Medium (DMEM), Dulbecco's phosphate buffered saline (DPBS), fetal bovine serum (FBS) and 0.25% trypsin/EDTA solutions were purchased from Cellgro (Manassas, Va.). Penicillin-streptomycin solutions were purchased from Mediatech (Manassas, Va.). (b) HeLa (CCL-2TM) cells, A549, A2870, A2870/CP70, MCF-7, PC-3, and MRC-5 cells were purchased from American Type Culture Collection (ATCC, Manassas, Va., USA). (c) HCT116 cells were kindly donated by Laura Trudel (MIT). HeLa, A549, MCF-7, and MRC-5 cells were cultured using DMEM supplemented with 10% FBS and 1% penicillin-streptomycin. A2870, A2870/CP70, and PC-3 cells were cultured in RPMI supplemented with 10% FBS and 1% penicillin-streptomycin. HCT116 cells were cultured in McCoy's supplemented with 10% FBS and 1% penicillin-streptomycin. All cell-culture experiments were performed in the aforementioned media in an incubator operating at 37° C. and in the presence of a humidified atmosphere containing 5.0% CO2. Cells were harvested using a 0.25% trypsin/EDTA solution.\nThe cytotoxicity of the compounds was assessed by means of the MTT assay (MTT=3-(4,5-dimethyl-2-thiazolyl)-2,5-diphenyl-2H-tetrazolium bromide). Typically, on day one, ˜1×10^3 cells were seeded into 96-well plates in 100 μL media per well. […] The optical density for each well at 550 nm was measured with a microplate reader."}, "A549 cells [2]": {"system": "A549 cells", "experiment": "Cell cycle flow cytometry (propidium iodide)", "format": "cell-based", "conditions": "3 μM", "description": "Flow-cytometric measurements were also performed to determine the effect of Pt(IV)(α-TOS)(OEt) exposure on cell cycle progression. A549 cells were treated with Pt(IV)(α-TOS)(OEt), 3 μM, for 24, and 48 hours. The cell cycle distribution was compared with untreated cells. […] After 24 hours the untreated population had 78.1% in G1 phase, 17.7% in S phase, 4.5% in G2/M phase. After 48 hours the untreated population had 81.0% in G1 phase, 16.0% in S phase, 3.0% in G2/M phase. After 24 hours the treated population had 64.7% in G1 phase, 31.7% in S phase, 3.6% in G2/M phase. After 48 hours, the treated population had 70.4% in G1 phase, 26.2% in S phase, 3.4% in G2/M phase. […] It was therefore clear that Pt(IV)(α-TOS)(OEt) disturbed DNA synthesis and arrest at S-phase.\nIn order to monitor the cell cycle, flow cytometry studies were carried out. A549 cells were incubated with and without the test compounds for 24 and 48 h at 37° C. Cells were harvested from adherent cultures by trypsinization and combined with all detached cells from the incubation medium to assess total cell viability. Following centrifugation at 1000 rpm for 5 min, cells were washed with PBS and then fixed with 70% ethanol in PBS. Fixed cells were collected by centrifugation at 2500 rpm for 3 min, washed with PBS and centrifuged as before. Cellular pellets were re-suspended in 50 μg/mL propidium iodide (Sigma) in PBS for nucleic acids staining and treated with 100 μg/mL RNaseA (Sigma). DNA content was measured on a FACSCalibur-HTS flow cytometer (BD Biosciences) using laser excitation at 488 nm and 20,000 events per sample were acquired. Cell cycle profiles were analysed using the ModFit software. For the apoptosis experiments, the Annexin V-FITC Early Apoptosis Detection Kit (Cell Signaling Technology) was used. The manufacture's protocol was followed to carry out this experiment. Briefly, untreated and treated cells (1×10^5) were suspended in 1× annexin binding buffer (96 μL) (10 mM HEPES, 140 mM NaCl, 2.5 mM CaCl2, pH 7.4), then 1 μL FITC annexin V and 12.5 μL propidium iodine (10 μg/mL) were added to each sample and incubated on ice for 15 min. Subsequently, more binding buffer (150 μL) was added while gently mixing. The samples were kept on ice prior to being read on the FACSCalibur-HTS flow cytometer (BD Biosciences) (20,000 events per sample were acquired). Cell populations were analysed using the FlowJo software (Tree Star). For the JC-1 assay, the JC-1 Mitochondrial Membrane Potential Assay Kit (Cayman) was used. The manufacture's protocol was followed to carry out this experiment. Briefly, to untreated and treated cells grown in 6-well plates (at a density of 5×10^5 cells/mL) was added the JC-1 staining solution (100 μL/mL of cell media). The cells were incubated for 30 min, harvested, and analysed by using the FACSCalibur-HTS flow cytometer (BD Biosciences) (20,000 events per sample were acquired). The FL1 channel was used to detect unhealthy or apoptotic cells with collapsed mitochondria. Cell populations were analysed using the FlowJo software (Tree Star)."}, "[3]": {"system": "A2780 ovarian cancer cells", "experiment": "PI-annexin-V dual staining apoptosis assay", "format": "cell-based", "conditions": "4 μM for 48 h"}},
  "data": [
    {"smiles": "CC[O][Pt]([NH2])([NH2])([Cl])([Cl])[O]C(=O)CCC(=O)Oc1c(C)c(C)c2c(c1C)CCC(C)(CCCC(C)CCCC(C)CCCC(C)C)O2", "note": "(stereo not drawn) [Pt(IV)(α-TOS)(OEt)]", "values": [
      {"measurement": "IC50", "setting": "A549 cells [1]", "result": 1300, "unit": "nM"},
      {"measurement": "cell population in G1 phase", "setting": "A549 cells [2]; 24 hours", "result": 64.7, "unit": "%"},
      {"measurement": "cell population in G2/M phase", "setting": "A549 cells [2]; 24 hours", "result": 3.6, "unit": "%"},
      {"measurement": "cell population in S phase", "setting": "A549 cells [2]; 24 hours", "result": 31.7, "unit": "%"},
      {"measurement": "cell population in G1 phase", "setting": "A549 cells [2]; 48 hours", "result": 70.4, "unit": "%"},
      {"measurement": "cell population in G2/M phase", "setting": "A549 cells [2]; 48 hours", "result": 3.4, "unit": "%"},
      {"measurement": "cell population in S phase", "setting": "A549 cells [2]; 48 hours", "result": 26.2, "unit": "%"},
      {"measurement": "cell population with characteristics of early apoptosis", "setting": "[3]", "result": 28, "unit": "%"}
    ]}
  ]
}
